Measurements as given in patent publication US4394504A, “Cephalosporin derivatives” (American Home Products Corporation, priority 1981, dated 1983).
In brackets after ≈: the same amount, converted by molar mass. Read-outs that look alike come from different tables or passages of the source.

Key:
[1] = tested on: Bacillus subtilis (BA SU), strain 6633; assay: Microdilution tube dilution assay MIC, Bacillus subtilis 6633; format: cell-based
Source text: (§1) The following examples are presented for purposes of illustration and should not be construed as limitations upon the true scope of this invention.
BA SU--Bacillus subtilis,
(§2) The product of Example 18 was reexamined by the microdilution method of tube dilution assay employing Mueller Hinton Broth whereby standardized cultures were introduced into serially diluted antibiotic from Example 18.

[2] = tested on: Staphylococcus aureus (ST AU), strain 209P; assay: Microdilution tube dilution assay MIC, Staphylococcus aureus 209P; format: cell-based
Source text: as §1
(§3) ST AU--Staphylococcus aureus,
as §2

[3] = tested on: Staphylococcus aureus (ST AU), strain SMITH; assay: Microdilution tube dilution assay MIC, Staphylococcus aureus SMITH; format: cell-based; conditions: Mueller Hinton Broth
Source text: as §1, §3, §2

[4] = tested on: Staphylococcus aureus (ST AU), strain CHP; assay: Microdilution tube dilution assay MIC, Staphylococcus aureus CHP; format: cell-based; conditions: Mueller Hinton Broth
Source text: as §1, §3, §2

[5] = tested on: Staphylococcus aureus (ST AU), strain 53-180; assay: Microdilution tube dilution assay MIC, Staphylococcus aureus 53-180; format: cell-based; conditions: Mueller Hinton Broth, ST AU 53-180
Source text: as §1, §3, §2

[6] = tested on: Klebsiella pneumoniae (KL PN), strain 10031; assay: Microdilution tube dilution assay MIC, Klebsiella pneumoniae 10031; format: cell-based; conditions: Mueller Hinton Broth, KL PN 10031
Source text: as §1
KL PN--Klebsiella pneumoniae,
as §2

[7] = tested on: Escherichia coli (ES CO), strain 9637; assay: Microdilution tube dilution assay MIC, Escherichia coli 9637; format: cell-based; conditions: Mueller Hinton Broth, ES CO 9637
Source text: as §1, §2

[8] = tested on: Salmonella paratyphi (SA PA), strain 11737; assay: Microdilution tube dilution assay MIC, Salmonella paratyphi 11737; format: cell-based; conditions: Salmonella enterica
[9] = tested on: Enterobacter aerogenes (EN AE), strain 13048; assay: Microdilution tube dilution assay MIC, Enterobacter aerogenes 13048; format: cell-based; conditions: Klebsiella aerogenes
Source text: as §1
EN AE--Enterobacter aerogenes,
as §2

[10] = tested on: Bordetella brochiseptica (BO BR), strain 4617; assay: Microdilution tube dilution assay MIC, Bordetella brochiseptica 4617; format: cell-based; conditions: Mueller Hinton Broth, BO BR 4617
Source text: as §1
BO BR--Bordetella brochiseptica,
as §2

[11] = tested on: Proteus vulgaris (PR VU), strain 6896; assay: Microdilution tube dilution assay MIC, Proteus vulgaris 6896; format: cell-based; conditions: Mueller Hinton Broth, PR VU 6896
Source text: as §1, §2

[12] = tested on: Proteus mirablis (PR MI), strain 9921; assay: Microdilution tube dilution assay MIC, Proteus mirablis 9921; format: cell-based
Source text: as §1, §2

[13] = tested on: Herellea species (HE SP), strain 9955; assay: Microdilution tube dilution assay MIC, Herellea species 9955; format: cell-based; conditions: Mueller Hinton Broth, HE SP 9955
Source text: as §1, §2

[14] = tested on: Pseudomonas aeruginosa (PS AE), strain 10145; assay: Microdilution tube dilution assay MIC, Pseudomonas aeruginosa 10145; format: cell-based; conditions: Mueller Hinton Broth, PS AE 10145
Source text: as §1
PS AE--Pseudomonas aeruginosa,
as §2

[15] = tested on: ES IN, strain 65-1; assay: Microdilution tube dilution assay MIC, ES IN 65-1; format: cell-based, Escherichia intermedia; conditions: Citrobacter intermedius
Source text: as §1
ES IM--Escherichia intermedia.
as §2

[16] = tested on: Bacillus subtilis (BA SU), strain 6633; assay: Agar serial dilution MIC, Bacillus subtilis 6633; format: cell-based
Source text: (§4) The antibacterial compounds of this invention are effective against gram-positive and gram-negative test organisms at inhibitory concentrations at or below 250 micrograms per milliliter using the well-known and scientifically accepted agar serial dilution technique. Thus, the antibacterial agents of this invention are useful in the fields of comparative pharmacology and microbiology and may be used in the treatment of infections amenable to treatment with cephalosporins and penicillins such as bovine mastitis as well as in the eradication of bacterial colonies outside the animal host.
as §1
BA SU--Bacillus subtilis, […]

[17] = tested on: Staphylococcus aureus (ST AU), strain 6538P; assay: Agar serial dilution MIC, Staphylococcus aureus 6538P; format: cell-based; conditions: ST AU 6538P
Source text: as §4, §1
(§5) ST AU--Staphylococcus aureus, […]

[18] = tested on: Staphylococcus aureus (ST AU), strain SMITH; assay: Agar serial dilution MIC, Staphylococcus aureus SMITH; format: cell-based
Source text: as §4, §1, §5

[19] = tested on: Staphylococcus aureus (ST AU), strain CHP; assay: Agar serial dilution MIC, Staphylococcus aureus CHP; format: cell-based
Source text: as §4, §1, §5

[20] = tested on: Staphylococcus aureus (ST AU), strain 53-180; assay: Agar serial dilution MIC, Staphylococcus aureus 53-180; format: cell-based
Source text: as §4, §1, §5

[21] = tested on: Escherichia coli (ES CO), strain 9637; assay: Agar serial dilution MIC, Escherichia coli 9637; format: cell-based; conditions: ES CO 9637
Source text: as §4, §1

[22] = tested on: Enterobacter cloacae (EN CL), strain 65-1; assay: Agar serial dilution MIC, Enterobacter cloacae 65-1; format: cell-based; conditions: EN CL 65-1
Source text: as §4, §1
EN CL--Enterobacter cloacae, […]

[23] = tested on: Salmonella paratyphi (SA PA), strain 11737; assay: Agar serial dilution MIC, Salmonella paratyphi 11737; format: cell-based; conditions: Salmonella enterica
Source text: as §4, §1
SA PA--Salmonella paratyphi, […]

[24] = tested on: Enterobacter aerogenes (EN AE), strain 13048; assay: Agar serial dilution MIC, Enterobacter aerogenes 13048; format: cell-based; conditions: Klebsiella aerogenes, EN AE 13048
Source text: as §4, §1
EN AE--Enterobacter aerogenes, […]

[25] = tested on: Klebsiella pneumoniae (KL PN), strain 10031; assay: Agar serial dilution MIC, Klebsiella pneumoniae 10031; format: cell-based; conditions: KL PN 10031
Source text: as §4, §1
KL PN--Klebsiella pneumoniae, […]

[26] = tested on: Proteus vulgaris (PR VU), strain 6896; assay: Agar serial dilution MIC, Proteus vulgaris 6896; format: cell-based
Source text: as §4, §1

[27] = tested on: Proteus mirablis (PR MI), strain 9921; assay: Agar serial dilution MIC, Proteus mirablis 9921; format: cell-based
Source text: as §4, §1

[28] = tested on: Bordetella brochiseptica (BO BR), strain 4617; assay: Agar serial dilution MIC, Bordetella brochiseptica 4617; format: cell-based; conditions: BO BR 4617
Source text: as §4, §1
BO BR--Bordetella brochiseptica, […]

[29] = tested on: AC CA, strain 9955; assay: Agar serial dilution MIC, AC CA 9955; format: cell-based
Source text: as §4, §1

Structure (SMILES)	MIC [3] [µg/mL]	MIC [4] [µg/mL]	MIC [5] [µg/mL]	MIC [6] [ng/mL]	MIC [7] [µg/mL]	MIC [8] [µg/mL]	MIC [10] [µg/mL]	MIC [11] [µg/mL]	MIC [13] [µg/mL]	MIC [14] [µg/mL]	MIC [17] [µg/mL]	MIC [21] [µg/mL]	MIC [22] [µg/mL]	MIC [23] [µg/mL]	MIC [24] [µg/mL]	MIC [25] [µg/mL]	further results
CO/N=C(\C(=O)N[C@@H]1C(=O)N2C(C(=O)O)=C(COC(C)=O)CS[C@H]12)c1csc(N)n1 [Cefotaxime, reference compound]	0.244 (≈ 0.536 µM)	3.9 (≈ 8.56 µM)	0.976 (≈ 2.14 µM)	0.06 (≈ 0.000132 µM)	0.0038 (≈ 0.00834 µM)	0.0076 (≈ 0.0167 µM)	15.6 (≈ 34.3 µM)	0.00023 (≈ 0.000505 µM)	15.6 (≈ 34.3 µM)	3.9 (≈ 8.56 µM)	–	–	–	–	–	–	MIC [1]: 0.488 µg/mL (≈ 1.07 µM); MIC ([2]; 209P): 0.488 µg/mL (≈ 1.07 µM); MIC ([9]; microdilution, Mueller Hinton Broth, EN AE 13048, read-out: MIC): 0.0152 µg/mL (≈ 0.0334 µM); MIC [12]: 0.0019 µg/mL (≈ 0.00417 µM); MIC ([15]; microdilution, Mueller Hinton Broth, ES IN 65-1, read-out: MIC): 0.0038 µg/mL (≈ 0.00834 µM)
CO/N=C(/C(=O)NC1C(=O)N2C(C(=O)O)=C(COC(C)=O)CSC12)c1cc(N)no1 (stereo not drawn) [Example 15, 3-Acetoxymethyl-7-[2-(3-Amino-5-Isoxazolyl)-2-anti-Methoxyiminoacetamido]-Ceph-3-em-4-Carboxylic Acid]	–	–	–	–	–	–	–	–	–	–	7.81 (≈ 17.8 µM)	15.6 (≈ 35.5 µM)	62.5 (≈ 142 µM)	15.6 (≈ 35.5 µM)	62.5 (≈ 142 µM)	15.6 (≈ 35.5 µM)	MIC ([16]; agar serial dilution, BA SU 6633, read-out: MIC): 7.81 µg/mL (≈ 17.8 µM); MIC ([18]; agar serial dilution, ST AU SMITH, read-out: MIC): 3.9 µg/mL (≈ 8.88 µM); MIC [19]: 15.6 µg/mL (≈ 35.5 µM); MIC [20]: 15.6 µg/mL (≈ 35.5 µM); MIC ([26]; agar serial dilution, PR VU 6896, read-out: MIC): 31.3 µg/mL (≈ 71.2 µM); MIC ([27]; agar serial dilution, PR MI 9921, read-out: MIC): 7.81 µg/mL (≈ 17.8 µM)
CO/N=C(\C(=O)NC1C(=O)N2C(C(=O)O)=C(COC(C)=O)CSC12)c1cc(N)no1 (stereo not drawn) [Example 18, 3-Acetoxymethyl-7-[2-(3-Amino-5-Isoxazolyl)-2-syn-Methoxy-Iminoacetamido]-Ceph-3-em-4-Carboxylic Acid]	0.244 (≈ 0.555 µM)	3.9 (≈ 8.88 µM)	0.488 (≈ 1.11 µM)	15.2 (≈ 0.0346 µM)	0.122 (≈ 0.278 µM)	0.488 (≈ 1.11 µM)	125 (≈ 284 µM)	0.122 (≈ 0.278 µM)	62.5 (≈ 142 µM)	125 (≈ 284 µM)	1.95 (≈ 4.44 µM)	0.488 (≈ 1.11 µM)	1.95 (≈ 4.44 µM)	0.488 (≈ 1.11 µM)	31.3 (≈ 71.2 µM)	0.488 (≈ 1.11 µM)	MIC [16]: 0.488 µg/mL (≈ 1.11 µM); MIC [18]: 0.488 µg/mL (≈ 1.11 µM); MIC ([19]; agar serial dilution, ST AU CHP, read-out: MIC): 7.81 µg/mL (≈ 17.8 µM); MIC ([20]; agar serial dilution, ST AU 53-180, read-out: MIC): 3.9 µg/mL (≈ 8.88 µM); MIC [28]: 250 µg/mL (≈ 569 µM); MIC [26]: 0.976 µg/mL (≈ 2.22 µM); MIC [29]: 125 µg/mL (≈ 284 µM); MIC [27]: 0.488 µg/mL (≈ 1.11 µM); MIC ([1]; microdilution, Mueller Hinton Broth, BA SU 6633, read-out: MIC): 1.95 µg/mL (≈ 4.44 µM); MIC ([2]; microdilution, Mueller Hinton Broth, ST AU 209P, read-out: MIC): 0.244 µg/mL (≈ 0.555 µM); MIC [9]: 0.976 µg/mL (≈ 2.22 µM); MIC ([12]; microdilution, Mueller Hinton Broth, PR MI 9921, read-out: MIC): 0.122 µg/mL (≈ 0.278 µM); MIC [15]: 0.488 µg/mL (≈ 1.11 µM)
